The results in this text go back to ChEMBL document CHEMBL4680302, “Biologic-like In Vivo Efficacy with Small Molecule Inhibitors of TNFα Identified Using Scaffold Hopping and Structure-Based Drug Design Approaches” (J Med Chem, 2020).

The structures appear in SMILES notation.

One series concerns the target Cytochrome P450 2C9 (Homo sapiens, UniProt P11712). Briefly: Inhibition of recombinant CYP2C9 (unknown origin). It is filed as ADME.
Another series concerns the target Cytochrome P450 2C19 (Homo sapiens, UniProt P33261). Briefly: Inhibition of recombinant CYP2C19 (unknown origin). It is filed as ADME.
Series [1] has as its target T1, Tumor necrosis factor (Homo sapiens, UniProt P01375). Briefly: Displacement of fluorescent labeled probe from human recombinant His-tagged TNFalpha (77 to 233 residues) expressed in Escherichia coli preincubated for 1 hr followed by fluorogenic probe addition and measured after 3 hrs by HTRF assay.
Series [2] concerns the target T1, Tumor necrosis factor. Briefly: Inhibition of exogenous human TNFalpha in HEK-Blue-CD40L cells assessed as reduction in TNF-alpha-induced NFkappaB activation incubated for 18 hrs by quanti-blue based SEAP assay. In kind it is cell-based.
The nature of series [3]: Metabolic stability in mouse liver microsomes assessed as parent compound remaining after 10 mins. Particulars: read-out: Stabilty. It is filed as ADME, Microsome. For orientation: Microsomes from liver hold many membrane-bound enzymes, among them those of drug oxidation.
The nature of series [4]: Metabolic stability in human liver microsomes assessed as parent compound remaining after 10 mins. To be noted: read-out: Stabilty. In kind it is ADME, Microsome.

T1 sequence (P01375 whole entry, the tested form may be a part): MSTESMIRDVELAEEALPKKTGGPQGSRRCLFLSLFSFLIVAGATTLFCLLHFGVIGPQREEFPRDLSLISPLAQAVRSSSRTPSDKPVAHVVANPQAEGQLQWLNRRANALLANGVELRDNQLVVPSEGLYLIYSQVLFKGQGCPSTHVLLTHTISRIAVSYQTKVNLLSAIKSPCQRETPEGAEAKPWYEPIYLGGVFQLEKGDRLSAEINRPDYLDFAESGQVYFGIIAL
Cytochrome P450 2C19, sequence (P33261 whole entry, the tested form may be a part): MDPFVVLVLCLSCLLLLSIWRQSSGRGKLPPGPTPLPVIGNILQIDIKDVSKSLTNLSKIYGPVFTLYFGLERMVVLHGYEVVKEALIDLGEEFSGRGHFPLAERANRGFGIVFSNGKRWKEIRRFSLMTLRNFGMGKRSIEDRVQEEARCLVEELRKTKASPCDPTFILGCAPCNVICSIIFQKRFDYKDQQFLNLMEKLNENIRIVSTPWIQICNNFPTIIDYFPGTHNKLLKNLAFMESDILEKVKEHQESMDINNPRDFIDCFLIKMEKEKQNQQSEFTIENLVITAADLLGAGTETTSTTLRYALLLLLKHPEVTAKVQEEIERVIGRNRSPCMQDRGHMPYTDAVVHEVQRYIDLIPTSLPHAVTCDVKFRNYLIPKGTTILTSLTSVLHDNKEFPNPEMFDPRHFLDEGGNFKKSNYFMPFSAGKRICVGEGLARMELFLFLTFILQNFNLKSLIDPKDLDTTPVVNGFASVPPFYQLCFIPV
Cytochrome P450 2C9, sequence (P11712 whole entry): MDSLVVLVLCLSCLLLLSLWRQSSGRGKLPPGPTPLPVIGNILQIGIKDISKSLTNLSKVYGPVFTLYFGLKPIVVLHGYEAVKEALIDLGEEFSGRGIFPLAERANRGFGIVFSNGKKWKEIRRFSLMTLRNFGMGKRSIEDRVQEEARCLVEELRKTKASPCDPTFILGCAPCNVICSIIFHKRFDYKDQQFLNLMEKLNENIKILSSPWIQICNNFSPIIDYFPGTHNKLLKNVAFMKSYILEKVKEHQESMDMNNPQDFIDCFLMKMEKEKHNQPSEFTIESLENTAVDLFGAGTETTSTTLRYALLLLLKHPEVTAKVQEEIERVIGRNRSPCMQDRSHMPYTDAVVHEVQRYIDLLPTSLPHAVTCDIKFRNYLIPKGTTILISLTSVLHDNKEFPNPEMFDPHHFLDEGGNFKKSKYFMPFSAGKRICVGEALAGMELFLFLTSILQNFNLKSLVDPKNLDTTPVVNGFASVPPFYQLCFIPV

Usually IC50 stands for the point on the concentration scale where inhibition reaches its midpoint. For `Cc1ccc(C)c(Nc2c(Cl)c(C)nc3ccc(-c4cnc(C(C)(C)O)nc4)cc23)c1`, the half-inhibitory concentration (IC50) was 2800 nM at Cytochrome P450 2C9, 2100 nM on Cytochrome P450 2C19, 51 nM on Tumor necrosis factor [1] and 196 nM on Tumor necrosis factor [2].

On to `CC(Nc1c(Cl)cnc2c(F)cc(-c3cnc(C(C)(C)O)nc3)cc12)c1ccccc1F` (racemic), for which the remaining at 10 min in series [3] was 25%; in series [4] it was 67%. For the same compound, the IC50 on Tumor necrosis factor [1] came out at 46 nM; at Tumor necrosis factor [2], 224 nM.

Consider `CC(Nc1c(Cl)cnc2ccc(-c3cnc(C(C)(C)O)nc3)cc12)c1ccc(F)cc1` (racemic), for which the figures for the remaining at 10 min in series [3] and in series [4] were 38% and 42%, respectively. Besides, the results for the IC50 on Tumor necrosis factor [1] and at Tumor necrosis factor [2] were 62 nM and 840 nM, respectively.

In the case of `CC(C)(O)c1ncc(-c2ccc3ncc(Cl)c(NCc4ccccc4)c3c2)cn1`, the remaining at 10 min in series [3] worked out at 61%; in series [4], 57%. Besides, the results for the IC50 on Tumor necrosis factor [1] and on Tumor necrosis factor [2] were 82 nM and above 25000 nM, respectively.

On to `Cc1ccc(C)c(Nc2c(Cl)cnc3ccc(-c4ccc(C#N)nc4)cc23)c1`, for which the values for the remaining at 10 min in series [3] and in series [4] were 30% and 33%, respectively. Also, the IC50 at Tumor necrosis factor [1] amounted to 35 nM; at Tumor necrosis factor [2], 73 nM.

For the compound `CC(C)C(Nc1c(Cl)cnc2ccc(-c3cnc(C(C)(C)O)nc3)cc12)c1ccccc1F` (racemic), the remaining at 10 min was determined as 13% in series [3] and 69% in series [4]. The IC50 on Tumor necrosis factor [1] was 57 nM; on Tumor necrosis factor [2], 826 nM.

With `CC(Nc1c(Cl)cnc2cc(Cl)c(-c3cnc(C(C)(C)O)nc3)cc12)c1ccccc1F` (racemic), the IC50 at Tumor necrosis factor [1] was 54 nM; on Tumor necrosis factor [2], 178 nM.

As to `CC(Nc1c(Cl)cnc2ccc(-c3cnc(C(C)(C)O)nc3)nc12)c1ccccc1F` (single isomer, unassigned; enantiomer 2), the remaining at 10 min turned out to be 41% in series [3] and 84% in series [4]. Further, the IC50 was 30 nM on Cytochrome P450 2C19, 38 nM at Tumor necrosis factor [1] and 473 nM at Tumor necrosis factor [2].

For `CC(Nc1c(Cl)cnc2ccc(-c3cnc(C(C)(C)O)nc3)cc12)c1ccccc1F` (racemic), the remaining at 10 min in series [3] is 34%; in series [4], 51%. Further, the IC50 on Tumor necrosis factor [1] came to 27 nM; on Tumor necrosis factor [2], 190 nM.

Regarding `Cc1ccc(C)c(Nc2ccnc3ccc(-c4ccc(C#N)nc4)cc23)c1`, the results for the IC50 on Tumor necrosis factor [1] and at Tumor necrosis factor [2] were 428 nM and above 25000 nM, respectively.

Turning to `C[C@@H](Nc1c(Cl)cnc2ccc(-c3ccc(S(C)(=O)=O)nc3)cc12)c1ccccc1F`, the remaining at 10 min is 31% in series [3] and 33% in series [4]. Besides, the IC50 at Tumor necrosis factor [1] came to 15 nM; on Tumor necrosis factor [2] it was 909 nM.

As to `Cc1ccc(C)c(Nc2c(Cl)cnc3ccc(-c4cnc(C(C)(C)O)nc4)cc23)c1`, the IC50 was found to be 600 nM on Cytochrome P450 2C9, 30 nM on Cytochrome P450 2C19 and 105 nM at Tumor necrosis factor [2]. The values for the remaining at 10 min in series [3] and in series [4] were 24% and 35%, respectively.

Consider `C[C@@H](Nc1c(Cl)cnc2ccc(-c3ccc(C(C)(C)O)cc3)cc12)c1ccccc1F`, for which the remaining at 10 min in series [3] stood at 24%; in series [4], 73%. Moreover, the IC50 turned out to be 47 nM on Tumor necrosis factor [1] and 65 nM at Tumor necrosis factor [2].

In the case of `CC(Nc1c(Cl)cnc2ccc(-c3cnc(C(C)(C)O)nc3)nc12)c1ccccc1F` (racemic), on Tumor necrosis factor [1], the IC50 came out at 24 nM.

As for `C[C@@H](Nc1c(Cl)cnc2ccc(-c3cnc(C(C)(C)O)nc3)cc12)c1ccccc1F`, the remaining at 10 min in series [3] is 54%; in series [4], 59%. Further, the IC50 worked out at 17 nM on Tumor necrosis factor [1] and 110 nM at Tumor necrosis factor [2].

For the compound `CC(C)(O)c1ncc(-c2ccc3ncc(Cl)c(NC(C)(C)c4ccccc4)c3c2)cn1`, the remaining at 10 min turned out to be 47% in series [3] and 76% in series [4]. Besides, the concentration for half-maximal inhibition (IC50) at Tumor necrosis factor [1] is above 10000 nM; on Tumor necrosis factor [2] it was above 25000 nM.

Consider `C[C@@H](Nc1c(Cl)cnc2ccc(-c3cnc(N4CCS(=O)(=O)CC4)nc3)cc12)c1ccccc1F`, for which the remaining at 10 min in series [3] was found to be 34%; in series [4], 57%. The half-maximal inhibitory concentration (IC50) is 25 nM on Tumor necrosis factor [1] and 152 nM on Tumor necrosis factor [2].

On to `C[C@@H](Nc1ccnc2ccc(-c3cnc(C(C)(C)O)nc3)cc12)c1cc(N2CCCC2)ccc1F`, for which the remaining at 10 min stood at 51% in series [3] and 46% in series [4]. The IC50 was 15100 nM on Tumor necrosis factor [1] and above 25000 nM at Tumor necrosis factor [2].

For the compound `CC(Nc1c(Cl)cnc2ccc(-c3cnc(C(C)(C)O)nc3)c(Cl)c12)c1ccccc1F` (racemic), the IC50 stood at 116 nM on Tumor necrosis factor [1] and 365 nM at Tumor necrosis factor [2].

With `CC(Nc1c(Cl)cnc2c(Cl)cc(-c3cnc(C(C)(C)O)nc3)cc12)c1ccccc1F` (racemic), the remaining at 10 min was 7% in series [3] and 40% in series [4]. For the same compound, the IC50 was 106 nM at Tumor necrosis factor [1] and above 25000 nM on Tumor necrosis factor [2].

For `C[C@H](Nc1c(Cl)cnc2ccc(-c3cnc(C(C)(C)O)nc3)cc12)c1ccccc1`, the figures for the remaining at 10 min in series [3] and in series [4] were 26% and 32%, respectively. Further, the values for the IC50 on Tumor necrosis factor [1] and at Tumor necrosis factor [2] were 943 nM and above 25000 nM, respectively.

Take `C[C@@H](Nc1c(Cl)cnc2ccc(-c3cnc(C(C)(C)O)nc3)cc12)c1cc(N2CCCC2)ccc1F`: the remaining at 10 min was 18% in series [3] and 30% in series [4]. Also, the IC50 on Tumor necrosis factor [1] turned out to be 94 nM; on Tumor necrosis factor [2] it was 331 nM.

As for `Cc1ccc(C)c(Nc2c(C)cnc3ccc(-c4cnc(C(C)(C)O)nc4)cc23)c1`, on Tumor necrosis factor [2], the IC50 worked out at 107 nM.

On to `CC(Nc1c(Cl)cnc2ccc(-c3cnc(C(C)(C)O)nc3)cc12)c1ccccc1C(F)(F)F` (racemic), for which the values for the remaining at 10 min in series [3] and in series [4] were 49% and 81%, respectively. Moreover, the IC50 turned out to be 51 nM at Tumor necrosis factor [1] and 407 nM on Tumor necrosis factor [2].

Consider `CCC(Nc1c(Cl)cnc2ccc(-c3cnc(C(C)(C)O)nc3)cc12)c1ccccc1F` (racemic), for which the figures for the remaining at 10 min in series [3] and in series [4] were 38% and 57%, respectively. The IC50 at Tumor necrosis factor [1] stood at 35 nM; on Tumor necrosis factor [2], 368 nM.

For `CC(Nc1c(Cl)cnc2ccc(-c3cnc(C(C)(C)O)nc3)cc12)c1cccc(F)c1` (racemic), the remaining at 10 min in series [3] was found to be 32%; in series [4] it was 47%. For the same compound, the IC50 on Tumor necrosis factor [1] stood at 31 nM; at Tumor necrosis factor [2] it was 1040 nM.

Consider `CCOc1ncc(-c2ccc3ncc(Cl)c(N[C@H](C)c4ccccc4F)c3c2)cn1`, for which the remaining at 10 min in series [3] turned out to be 28%; in series [4] it was 32%. The concentration for half-maximal inhibition (IC50) was 15 nM on Tumor necrosis factor [1] and 587 nM at Tumor necrosis factor [2].

For `CC(Nc1c(Cl)cnc2ccc(-c3cnc(C(C)(C)O)nc3)cc12)c1ccccn1` (racemic), the remaining at 10 min was found to be 21% in series [3] and 50% in series [4]. Besides, the IC50 at Tumor necrosis factor [1] is 264 nM; at Tumor necrosis factor [2], above 25000 nM.

As to `C[C@@H](Nc1c(Cl)cnc2ccc(-c3cnc(C(C)(C)O)nc3)cc12)c1cc(C#N)ccc1F`, the remaining at 10 min in series [3] came out at 23%; in series [4], 79%. The IC50 at Tumor necrosis factor [1] was found to be 48 nM; on Tumor necrosis factor [2], 49 nM.

Take `CC(Nc1c(Cl)cnc2ccc(-c3cnc(C(C)(C)O)nc3)nc12)c1ccccc1F` (single isomer, unassigned; enantiomer 1): the IC50 at Tumor necrosis factor [1] is 39 nM; at Tumor necrosis factor [2], 753 nM.

As for `CC(Nc1c(Cl)cnc2cc(F)c(-c3cnc(C(C)(C)O)nc3)cc12)c1ccccc1F` (racemic), the remaining at 10 min in series [3] was found to be 28%; in series [4], 70%. Besides, the IC50 on Tumor necrosis factor [1] came out at 48 nM; at Tumor necrosis factor [2] it was 64 nM.

As to `C[C@@H](Nc1c(Cl)cnc2ccc(-c3cnc(C(C)(C)O)nc3)cc12)c1cc(N)ccc1F`, the remaining at 10 min in series [3] turned out to be 45%; in series [4], 70%. In addition, the IC50 on Tumor necrosis factor [1] came out at 37 nM; on Tumor necrosis factor [2], 41 nM.

With `C[C@@H](Nc1c(Cl)cnc2ccc(-c3cnc(C(C)(C)O)nc3)cc12)c1ccccc1`, the figures for the remaining at 10 min in series [3] and in series [4] were 50% and 45%, respectively. The IC50 was found to be 14 nM at Tumor necrosis factor [1] and 496 nM at Tumor necrosis factor [2].

As for `CC(Nc1c(Cl)cnc2cnc(-c3cnc(C(C)(C)O)nc3)cc12)c1ccccc1F` (racemic), the IC50 on Tumor necrosis factor [1] amounted to 400 nM.

On to `C[C@@H](Nc1c(Cl)cnc2ccc(-c3cnc(N4CCN(CC(=O)O)CC4)nc3)cc12)c1ccccc1F`, for which the remaining at 10 min came out at 57% in series [3] and 86% in series [4]. Besides, the IC50 on Tumor necrosis factor [2] came to 115 nM.

Take `CC(Nc1c(Cl)cnc2ncc(-c3cnc(C(C)(C)O)nc3)cc12)c1ccccc1F` (racemic): at Tumor necrosis factor [1], the half-inhibitory concentration (IC50) turned out to be 207 nM.

As to `Cc1ccc(C)c(Nc2c(Cl)cnc3ccc(Br)cc23)c1`, the IC50 on Tumor necrosis factor [1] worked out at 36 nM; on Tumor necrosis factor [2], 840 nM.
